Data on eight molecules can be found in ChEMBL document CHEMBL1201862, “PubChem BioAssay data set” (2004).

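Grown in 96-well plates, cells were treated for 48 hours with each compound at five concentrations. Insufficient inhibition: endpoint recorded as highest concentration tested. GI50 = concentration required for 50% inhibition of growth.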 The source made the active and inactive calls. No stated cut-off is given here; in the data, active = GI50 up to about 1.1 µM and inactive = higher.

Some test systems named below: SK-MEL-2; CCRF-CEM; RXF 393; U-251; Hs-578T; NCI-H522; MCF7; 786-0; Malme-3M; A498; CAKI-1; OVCAR-8; M14; SK-MEL-28; NCI-H226; MOLT-4; COLO 205; EKVX; NCI/ADR-RES.
Experiment in all cases: NCI-60 cell line screen, 48 h

For the molecule `C#C[C@]1(O)CC[C@H]2[C@@H]3CCC4=C/C(=N/OC(=O)c5cccc6c(=O)c7ccccc7[nH]c56)CC[C@@H]4[C@H]3CC[C@@]21C`, the GI50 was 57.4 µM (inactive) with SK-MEL-2; 14.4 µM (inactive) in the test on CCRF-CEM; > 100 µM (inactive) with RXF 393; 62.1 µM (inactive) with U-251; 54.1 µM (inactive) in the test on Hs-578T; 18.2 µM (inactive) with NCI-H522. Also, the GI50 is 42.5 µM (inactive) with MCF7; > 100 µM (inactive) in the test on 786-0; 45 µM (inactive) with Malme-3M; > 100 µM (inactive) with A498; 37.5 µM (inactive) with CAKI-1; 42.1 µM (inactive) in the test with OVCAR-8. For the same molecule, the GI50 with M14 is 56.5 µM (inactive); with SK-MEL-28, 62.4 µM (inactive); with NCI-H226 it was 83.6 µM (inactive); in the test on MOLT-4, 16.2 µM (inactive); in the test on COLO 205, 24.4 µM (inactive); in the test on EKVX, 71 µM (inactive). In addition, the GI50 in the test on NCI/ADR-RES is 58.6 µM (inactive).

Regarding `Cc1ccc(CC(Cc2ccc(C)cc2C(=O)O)C(=O)O)cc1` (centres undefined), the GI50 in the test on SK-MEL-2, in the test on CCRF-CEM, with RXF 393, in the test on U-251, in the test on Hs-578T and with NCI-H522 was > 100 µM (inactive) in each case. The GI50 in the test on MCF7, in the test with 786-0, in the test on Malme-3M, in the test on A498, in the test on CAKI-1 and in the test on OVCAR-8 was > 100 µM (inactive) each time. The GI50 in the test with M14, in the test on SK-MEL-28, in the test with NCI-H226, in the test on MOLT-4, in the test on COLO 205 and in the test with EKVX was > 100 µM (inactive) throughout. For the same molecule, in the test with NCI/ADR-RES, the GI50 was > 100 µM (inactive).

`CC1=C(C)C(=O)C(C2=C(C3=CC(=O)C(C)=C(C)C3=O)C(=O)c3ccccc3C2=O)=CC1=O`: the GI50 is 2.32 µM (inactive) with SK-MEL-2; 0.619 µM (active) in the test on CCRF-CEM; 1.71 µM (inactive) in the test on RXF 393; 3.62 µM (inactive) with U-251; 5.93 µM (inactive) with Hs-578T; 1.88 µM (inactive) in the test with NCI-H522. In addition, the GI50 in the test on MCF7 was 1.71 µM (inactive); with 786-0, 1.88 µM (inactive); in the test with Malme-3M it was 1.12 µM (active); in the test on A498, 8.04 µM (inactive); in the test with CAKI-1, 2.25 µM (inactive); in the test on OVCAR-8, 2.38 µM (inactive). Further, the GI50 was 1.82 µM (inactive) in the test with M14; 2.3 µM (inactive) in the test with SK-MEL-28; 6.14 µM (inactive) in the test on NCI-H226; 1.41 µM (inactive) in the test on MOLT-4; 0.863 µM (active) in the test on COLO 205; 2.12 µM (inactive) in the test on EKVX. Besides, the GI50 in the test with NCI/ADR-RES was 10.4 µM (inactive).

On to `CCCCCc1cc2c(cc1O)CC[C@@H]1[C@@H]2CC[C@]2(C)[C@@H](O)CC[C@@H]12`, for which the GI50 in the test on SK-MEL-2 is 23.3 µM (inactive); with CCRF-CEM, 35.3 µM (inactive); with RXF 393, 19.5 µM (inactive); in the test on U-251, 17.6 µM (inactive); in the test on Hs-578T it was 19.8 µM (inactive); with NCI-H522, 18.8 µM (inactive). Besides, the GI50 with MCF7 is 16.4 µM (inactive); in the test on 786-0, 14.8 µM (inactive); in the test with Malme-3M, 19.1 µM (inactive); with A498, 21.4 µM (inactive); in the test on CAKI-1, 21.5 µM (inactive); in the test on OVCAR-8, 20.1 µM (inactive). The GI50 in the test with M14 is 14.9 µM (inactive); with SK-MEL-28 it was 16.2 µM (inactive); in the test on NCI-H226 it was 14.5 µM (inactive); in the test on MOLT-4, 24.3 µM (inactive); with COLO 205 it was 16.1 µM (inactive); in the test on EKVX it was 17.9 µM (inactive). For the same molecule, the GI50 in the test on NCI/ADR-RES is 18.9 µM (inactive).

`O=c1cc(O)c2c(O)cc(O)cc2o1`: the GI50 in the test with SK-MEL-2, in the test with CCRF-CEM, in the test on RXF 393, with U-251, with Hs-578T and in the test on NCI-H522 was > 100 µM (inactive) each time. Moreover, the GI50 in the test with MCF7, with 786-0, with Malme-3M, with A498, in the test on CAKI-1 and in the test on OVCAR-8 was > 100 µM (inactive) each time. Besides, the GI50 with M14, with SK-MEL-28, with NCI-H226, in the test on MOLT-4, with COLO 205 and in the test with EKVX was > 100 µM (inactive) throughout. Moreover, in the test on NCI/ADR-RES, the GI50 was > 100 µM (inactive).

With `COc1ccc(C2SCC(=O)N2NC2=NC(=O)CC(=O)N2)cc1` (centres undefined), the GI50 with SK-MEL-2, in the test with CCRF-CEM, with RXF 393, in the test with U-251, in the test on Hs-578T and with NCI-H522 was > 100 µM (inactive) throughout. For the same molecule, the GI50 with MCF7, with 786-0, in the test on Malme-3M, with A498, in the test on CAKI-1 and with OVCAR-8 was > 100 µM (inactive) in each case. The GI50 in the test on M14, in the test on SK-MEL-28, in the test with NCI-H226, with MOLT-4, in the test with COLO 205 and with NCI/ADR-RES was > 100 µM (inactive) each time.

Regarding `COc1ccc2c(c1)-c1c(c3cc(OC)ccc3n1CCN(C)C)CC2`, the GI50 in the test on SK-MEL-2 was 14.5 µM (inactive); in the test with CCRF-CEM, 6.35 µM (inactive); with RXF 393 it was 13.5 µM (inactive); in the test with U-251, 11.2 µM (inactive); with Hs-578T, 13.7 µM (inactive); with NCI-H522, 17.9 µM (inactive). Also, the GI50 with MCF7 was 14.4 µM (inactive); with 786-0, 10.8 µM (inactive); in the test on Malme-3M, 16.1 µM (inactive); in the test with A498, 11.7 µM (inactive); in the test with CAKI-1, 14.6 µM (inactive); in the test on OVCAR-8, 17.4 µM (inactive). The GI50 is 13.7 µM (inactive) in the test on M14; 15.9 µM (inactive) with SK-MEL-28; 13.4 µM (inactive) with NCI-H226; 10.7 µM (inactive) in the test on MOLT-4; 12.2 µM (inactive) in the test with COLO 205; 16.3 µM (inactive) with NCI/ADR-RES.

`COc1cc([C@@H]2c3cc4c(cc3[C@@H](Nc3ccc([N+](=O)[O-])cc3C(=O)c3ccccc3)[C@H]3COC(=O)[C@H]23)OCO4)cc(OC)c1OC`: the GI50 was 3.28 µM (inactive) in the test on SK-MEL-2; 0.391 µM (active) with CCRF-CEM; 0.573 µM (active) with RXF 393; 0.354 µM (active) in the test on U-251; 5.05 µM (inactive) in the test with Hs-578T; 0.16 µM (active) with NCI-H522. Besides, the GI50 is 0.26 µM (active) in the test on MCF7; 0.425 µM (active) with 786-0; 0.481 µM (active) in the test on Malme-3M; 0.415 µM (active) in the test on A498; 0.381 µM (active) with CAKI-1; 0.515 µM (active) with OVCAR-8. Besides, the GI50 is 0.281 µM (active) in the test on M14; 0.726 µM (active) in the test with NCI-H226; 0.306 µM (active) with MOLT-4; 0.293 µM (active) with COLO 205; > 100 µM (inactive) with EKVX; 0.587 µM (active) in the test with NCI/ADR-RES.
